Data on one compound can be found in patent US20180271923A1, “COMPOSITION FOR PREVENTING OR TREATING MENOPAUSAL DISORDERS, CONTAINING TETRAGONIA TETRAGONOIDES (PALL.) KUNTZE EXTRACT” (Korea Institute of Oriental Medicine, priority 2015, published 2018).

What all share (type): in vivo
Series [1] concerns ovariectomized rats. As to the kind of experiment: Energy consumption by indirect calorimetry in ovariectomized rats. To be noted: indirect calorimetry after 8 weeks, 6 hours fasting, n = 12, means ± SD. An excerpt:
Specifically, the ovariectomized rats were fed with a high-fat diet (HFD) consisting of 40% energy (En %) of carbohydrate, 20 En % of protein, and 40 En % of fat, along with dextrin. The high-fat diet was made to contain 2% (w/w) of the Tetragonia tetragonoides (Pall.) Kuntze extract, and the rats were offered ad libitum access to the diet for 8 weeks. On the other hand, in the positive-control, the ovariectomized rats received 17β-estradiol which is a hormone preparation and were fed with a diet in which the high fat diet is mixed with dextrin for 8 weeks. Then, at the end of the experiment, a body weight, a mass of visceral fat including peri-uterine fat and fat in retroperitoneum, an energy consumption, and the like were measured. The energy consumption was analyzed by indirect calorimetry. Specifically, after the Tetragonia tetragonoides (Pall.) Kuntze extract was fed for 8 weeks, and a fasting state of 6 hours was induced, the energy consumption was measured at the time of beginning of a dark period in light/dark cycle. In order to analyze calorimetric parameters, a metabolic chamber (airflow=800 ml/min) equipped with a computer-controlled O2 and CO2 measurement system (BIOPAC Systems, Inc., Goleta, Calif.) was utilized, and respiratory quotient (RQ) and resting energy expenditure (REE) were calculated using equations. An average oxygen uptake (VO2) and an average carbon dioxide emission (VCO2) were measured over 30 minutes. After the experiment, data were averaged at 1 minute intervals and the VO2 and VCO2 values were calibrated to a body size (kg^0.75). Oxidation of carbohydrate and fat was calculated as a non-protein oxygen uptake, that is, a relative oxidation rate and an oxygen amount consumed per gram (g) of oxidized substrate.

The test system of series [2] is ovariectomized rats. As to the kind of experiment: Serum triglyceride, glucose, insulin, cholesterol levels and HOMA-IR in overnight-fasted ovariectomized rats. To be noted: n = 12, means ± SD. As for the experimental part: In order to confirm efficacies of the Tetragonia tetragonoides (Pall.) Kuntze extract prepared according to Preparation Example 1 for ameliorating menopausal obesity, rats were ovariectomized and, at the same time, obesity-induced. The rats were fed with the Tetragonia tetragonoides (Pall.) Kuntze extract, and effects of the extract on obesity-related parameters in blood were evaluated. The ovariectomized rats were fed with the Tetragonia tetragonoides (Pall.) Kuntze by the method according to Example 1-1. Then, at the end of the experiment, the rats were fasted overnight and masses of serum glucose, insulin, and triglyceride were measured. Specifically, the rats were fasted for 16 hours, and then blood was collected from tails. Fasting serum glucose levels were measured by a Beckman glucometer and serum insulin concentrations were measured by radioimmunoassay. Fasting blood glucose, food and water intake, and body weight were measured at 10 a.m. on every Tuesday. Based on the above results, a homeostasis model assessment of insulin resistance (HOMA-IR) concentration which is used as a marker of insulin resistance was calculated, and the following Equation 1 was used for such calculation. HOMA-IR=fasting insulin(μIU/ml)×fasting glucose(mM)/22.5 [Equation 1]

Series [3] relates to ovariectomized rats. The series can be described thus: Body weight, visceral fat, uterus weight and calorie uptake at end of experiment in ovariectomized rats on high-fat diet. The method, then: In order to confirm efficacies of the Tetragonia tetragonoides (Pall.) Kuntze extract prepared according to Preparation Example 1 for ameliorating menopausal obesity, rats were ovariectomized and, at the same time, obesity-induced. The rats were fed with the Tetragonia tetragonoides (Pall.) Kuntze extract, and effects of the extract on visceral fat were evaluated. Specifically, the ovariectomized rats were fed with a high-fat diet (HFD) consisting of 40% energy (En %) of carbohydrate, 20 En % of protein, and 40 En % of fat, along with dextrin. The high-fat diet was made to contain 2% (w/w) of the Tetragonia tetragonoides (Pall.) Kuntze extract, and the rats were offered ad libitum access to the diet for 8 weeks. On the other hand, in the positive-control, the ovariectomized rats received 17β-estradiol which is a hormone preparation and were fed with a diet in which the high fat diet is mixed with dextrin for 8 weeks. Then, at the end of the experiment, a body weight, a mass of visceral fat including peri-uterine fat and fat in retroperitoneum, an energy consumption, and the like were measured.

Series [4] relates to ovariectomized rats. The series can be described thus: Evaluation on menopause inducement in ovariectomized rats (weight of uterus, serum 17β-estradiol by RIA kit). To be noted: n = 12, means ± SD, Table 1. The method, then: Rats were ovariectomized to induce menopause, and weight of uterus and serum levels of 17β-estradiol that is a kind of female hormones were measured to determine whether menopause was induced in the rats. Specifically, the rats were sacrificed, and then their uteri were removed and weighed. A serum concentration of 17β-estradiol was measured with an RIA kit (Linco Research Inc.).

The mark [5] stands for this setting: serum, overnight-fasted ovariectomized rats.
Setting [6] is: ovariectomized rats, high-fat diet, 8 weeks, n = 12, means ± SD.

Structures are written as SMILES. Marks after values point to notes of the source that are not given here.

For the compound `C[C@]12CC[C@@H]3c4ccc(O)cc4CC[C@H]3[C@@H]1CC[C@@H]2O` [Positive-control, 17β-estradiol], the Daily energy consumption in the series on ovariectomized rats [1] (beginning of dark period) is listed as 117 ± 15^a kcal/kg^0.75/day. In the series on ovariectomized rats [1], the Carbohydrate oxidation is on record as 5.6 ± 0.7^b mg/kg^0.75/min and the Fat oxidation was 6.9 ± 0.8^b mg/kg^0.75/min. Besides, the HOMA-IR in the series with ovariectomized rats [2] (fasting insulin × fasting glucose / 22.5 (Equation 1)) is listed as 6.8 ± 0.9^c. In the series on ovariectomized rats [2] (serum, overnight-fasted (16 hours) ovariectomized rats, end of experiment), the Glucose levels is listed as 109 ± 13^b mg/dL. In the series on ovariectomized rats [2] (setting [5]), the HDL cholesterol was 23.2 ± 1.5^a mg/dL, the Total cholesterol is 85.0 ± 7.6^c mg/dL and the Triglyceride levels was 65.7 ± 5.8^b mg/dL. Moreover, in the series with ovariectomized rats [2] (serum, overnight-fasted ovariectomized rats, radioimmunoassay), the Insulin levels is 1.14 ± 0.19^b ng/mL. Also, the “weight of uterus (proliferation of uterus, side effect of hormone therapies)” value in the series on ovariectomized rats [3] (in words) was “increase”. In the series on ovariectomized rats [3] (ovariectomized rats, high-fat diet with 2% (w/w) extract for 8 weeks (positive-control: 17β-estradiol), end of experiment, n = 12, means ± SD), the Body weight was 369 ± 26^b g. In the series with ovariectomized rats [3] (setting [6]), the Body weight gain is given as 70.0 ± 11.5^c g, the Fat in retroperitoneum is 5.7 ± 1.6^c g and the Peri-uterine fat is reported as 7.2 ± 1.6^d g. The Weight of uterus in the series on ovariectomized rats [3] (ovariectomized rats, high-fat diet, 8 weeks, n = 12, means ± SD, Table 2) is 0.61 ± 0.22^a g. Moreover, in the series on ovariectomized rats [3] (peri-uterine fat and fat in retroperitoneum, ovariectomized rats, high-fat diet, 8 weeks, n = 12, means ± SD), the Visceral fat is recorded as 12.9 ± 2.6^c g. Moreover, the Weight of uterus with ovariectomized rats [4] is recorded as 0.61 ± 0.22^a g.
